Where two headings read alike, the source gives them in different places.
Legend:
[1] = biological target: T1, Human mTOR (FLAG-TOR) (Homo sapiens, UniProt P42345); assay: Human mTOR kinase assay with purified enzyme, DELFIA format; type: biochemical
T1 construct: FLAG
Procedure: Enzymes are first diluted in kinase assay buffer (10 mM HEPES (pH 7.4), 50 mM NaCl, 50 mM β-glycerophosphate, 10 mM MnCl2, 0.5 mM DTT, 0.25 mM microcystin LR, and 100 mg/mL BSA). To each well, 12 μL of the diluted enzyme is mixed briefly with 0.5 μL test inhibitor or control vehicle dimethylsulfoxide (DMSO). […] The reaction plate is incubated for 2 hours (linear at 1-6 hours) at room temperature with gentle shaking and then terminated by adding 25 μL Stop buffer (20 mM HEPES (pH 7.4), 20 mM EDTA, 20 mM EGTA). […] The DELFIA Assay buffer and Enhancement solution can be purchased from PerkinElmer. 45 μL of the terminated kinase reaction mixture is transferred to a MaxiSorp plate (Nunc) containing 55 μL PBS. The His6-S6K is allowed to attach for 2 hours after which the wells are aspirated and washed once with PBS. 100 μL of DELFIA Assay buffer with 40 ng/mL Eu—P(T389)-S6K antibody is added. The antibody binding is continued for 1 hour with gentle agitation. The wells are then aspirated and washed 4 times with PBS containing 0.05% Tween-20 (PBST). 100 μL of DELFIA Enhancement solution is added to each well and the plates are read in a PerkinElmer Victor model plate reader. Data obtained is used to calculate enzymatic activity and enzyme inhibition by potential inhibitors.

[2] = biological target: T2, PI3K (Homo sapiens, UniProt P42336); assay: Fluorescence polarization assay for PI3K; type: biochemical; conditions: read-out: PI3 Kinase α IC50
T2 construct: PI3 Kinase α IC50; other: PI3 Kinase α; other: PI3 Kinase α isoform, fluorescence polarization
Procedure: (§1) This assay is used to determine the IC50 of compounds of the present invention as it identifies inhibitors of PI3 kinase by measuring inhibition.
(§2) The assay is run by placing 5 μL of diluted enzyme per well, then 5 μL of diluted compound (or 9.5 μL enzyme then 0.5 μL compound in DMSO) is added and mixed. Then, 10 μL substrate is added to start the reaction. The samples are incubated 30-60 minutes, then the reaction is stopped by adding 20 μL stop/detector mix. PI3K is diluted with reaction buffer (e.g., 5 μL or 7.5 μL PI3K into 620 μL reaction buffer), and 5 μL of diluted enzyme is used per well. 5 μL reaction buffer or drug diluted in buffer (e.g., 4 μL/100 so final DMSO is 1% in reaction) is added to each. Pipetting up and down mixes the samples. Alternatively, the enzyme can be diluted to 1215 μL. In this case 9.8 μL is added per well and 0.2 μL compound is added in DMSO. To prepare 1 mL of substrate solution, 955 μL reaction buffer, 40 μL PIP2, and 2.5 μL ATP are mixed. 10 μL of substrate is added to each well to start the reaction.
(§3) Stop/detector mix is prepared by mixing 4 μL Red detector and 1.6 μL or 2.0 μL GST-GRP with 1 mL Stop buffer, which results in 10 nM probe and 70 nM GST-GRP). 20 μL of the stop/detector mix is added to each well to stop the reaction. The plates are read after 30-90 minutes keeping the red probe solutions dark. For the zero time point, stop/detector mix is added to the enzyme just before adding substrate. For an extra control, stop/detector mix is added to buffer (no enzyme) and substrate or to just buffer (no substrate). […] Plates are read on machines with filters for Tamra. The units are mP with no enzyme controls reading app 190-220 mP units. Fully active enzyme reduces fluorescence polarization down to 70-100 mP after 30 minutes.

[3] = biological target: T3, PI3K (Homo sapiens, UniProt P48736); assay: Fluorescence polarization assay for PI3K; type: biochemical; conditions: read-out: PI3 Kinase γ IC50
T3 construct: PI3 Kinase γ IC50; other: PI3 Kinase γ; other: PI3 Kinase γ isoform, fluorescence polarization
Procedure: as §1, §2, §3

[4] = test system: prostate line LNCap; assay: In vitro cell culture growth assay (MTS), LNCap; type: cell-based; conditions: Homo sapiens, LNCaP, 72 h, LNCap cells, three days after drug treatment
Procedure: (§4) Human tumor cell lines used include prostate lines LNCap and PC3MM2, breast lines MDA468, MCF7, renal line HTB44 (A498), colon line HCT116, and ovarian line OVCAR3. Cells were plated in 96-well culture plates. One day following plating, the inhibitors were added to cells. Three days after drug treatment, viable cell densities were determined by metabolic conversion (by viable cells) of the dye MTS, a well-established cell proliferation assay. The assays were performed using an assay kit purchased from Promega Corp. (Madison, Wis.) following the protocol supplied with the kit. The MTS assay results were read in a 96-well plate reader by measuring absorbance at 490 nm. The effect of each treatment was calculated as percent of control growth relative to the vehicle-treated cells grown in the same culture plate.

[5] = test system: breast line MDA468; assay: In vitro cell culture growth assay (MTS), MDA468; type: cell-based; conditions: Homo sapiens, 72 h, MDA468 cells, three days after drug treatment
Procedure: as §4

[6] = purified human mTOR enzyme, DELFIA format
[7] = PI3 Kinase α isoform, fluorescence polarization
[8] = PI3 Kinase γ isoform, fluorescence polarization

T3 sequence (P48736 whole entry, canonical isoform): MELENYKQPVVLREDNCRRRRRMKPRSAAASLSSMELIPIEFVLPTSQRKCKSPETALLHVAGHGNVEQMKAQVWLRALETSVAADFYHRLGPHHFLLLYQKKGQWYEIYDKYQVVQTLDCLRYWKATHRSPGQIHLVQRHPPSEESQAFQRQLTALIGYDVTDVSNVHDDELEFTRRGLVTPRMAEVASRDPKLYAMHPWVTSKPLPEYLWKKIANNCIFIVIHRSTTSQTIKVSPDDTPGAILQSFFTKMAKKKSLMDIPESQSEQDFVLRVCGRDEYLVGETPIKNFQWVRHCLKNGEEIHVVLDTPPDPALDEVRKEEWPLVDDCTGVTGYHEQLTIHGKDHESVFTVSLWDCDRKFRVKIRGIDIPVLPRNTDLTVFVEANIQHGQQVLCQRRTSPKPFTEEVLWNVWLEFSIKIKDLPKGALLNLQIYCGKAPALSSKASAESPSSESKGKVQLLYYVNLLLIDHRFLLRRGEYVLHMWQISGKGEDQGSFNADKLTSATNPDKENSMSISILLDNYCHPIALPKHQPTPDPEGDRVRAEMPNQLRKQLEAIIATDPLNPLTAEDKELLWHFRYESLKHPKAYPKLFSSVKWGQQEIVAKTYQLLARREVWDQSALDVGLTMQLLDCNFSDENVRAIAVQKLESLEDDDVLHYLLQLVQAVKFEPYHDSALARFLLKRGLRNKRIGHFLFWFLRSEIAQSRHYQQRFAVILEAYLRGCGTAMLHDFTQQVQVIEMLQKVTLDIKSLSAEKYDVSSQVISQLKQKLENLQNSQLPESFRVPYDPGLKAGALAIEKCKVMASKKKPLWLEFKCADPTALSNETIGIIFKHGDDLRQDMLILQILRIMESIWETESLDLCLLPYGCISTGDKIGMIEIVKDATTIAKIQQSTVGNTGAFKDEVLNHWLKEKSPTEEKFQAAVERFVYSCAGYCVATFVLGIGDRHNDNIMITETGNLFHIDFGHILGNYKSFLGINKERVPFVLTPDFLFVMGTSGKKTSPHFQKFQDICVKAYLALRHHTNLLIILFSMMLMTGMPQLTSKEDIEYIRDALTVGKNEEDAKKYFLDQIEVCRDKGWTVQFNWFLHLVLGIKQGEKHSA
T2 sequence (P42336 whole entry, canonical isoform): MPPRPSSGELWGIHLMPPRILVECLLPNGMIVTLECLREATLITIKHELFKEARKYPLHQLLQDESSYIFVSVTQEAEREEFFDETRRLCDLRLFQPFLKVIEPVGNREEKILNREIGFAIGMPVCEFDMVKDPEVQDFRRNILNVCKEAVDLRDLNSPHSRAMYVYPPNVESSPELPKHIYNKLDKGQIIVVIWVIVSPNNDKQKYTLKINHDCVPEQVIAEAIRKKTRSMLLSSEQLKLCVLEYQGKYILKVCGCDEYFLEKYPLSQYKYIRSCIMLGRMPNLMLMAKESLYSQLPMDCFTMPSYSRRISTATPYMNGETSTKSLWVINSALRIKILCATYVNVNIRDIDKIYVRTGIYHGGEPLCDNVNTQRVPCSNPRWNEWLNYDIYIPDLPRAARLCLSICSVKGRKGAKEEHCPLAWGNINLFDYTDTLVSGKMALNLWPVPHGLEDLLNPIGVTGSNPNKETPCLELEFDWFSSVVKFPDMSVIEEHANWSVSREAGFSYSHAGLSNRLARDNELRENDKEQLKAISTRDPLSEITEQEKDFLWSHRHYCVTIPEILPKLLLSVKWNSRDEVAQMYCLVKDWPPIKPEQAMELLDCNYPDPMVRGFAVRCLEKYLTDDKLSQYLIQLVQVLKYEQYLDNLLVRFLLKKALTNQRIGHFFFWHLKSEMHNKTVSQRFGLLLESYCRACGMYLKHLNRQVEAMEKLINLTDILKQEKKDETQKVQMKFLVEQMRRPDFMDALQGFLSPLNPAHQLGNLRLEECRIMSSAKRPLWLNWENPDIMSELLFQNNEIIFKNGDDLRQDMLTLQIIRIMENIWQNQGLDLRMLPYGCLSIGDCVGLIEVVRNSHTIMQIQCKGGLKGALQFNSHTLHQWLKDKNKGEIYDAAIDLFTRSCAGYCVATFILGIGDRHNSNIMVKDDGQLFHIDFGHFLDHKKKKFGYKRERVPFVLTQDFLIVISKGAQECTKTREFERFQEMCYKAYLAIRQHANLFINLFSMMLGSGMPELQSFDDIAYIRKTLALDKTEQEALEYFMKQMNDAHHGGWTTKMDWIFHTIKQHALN

SMILES | IC50 [1, 6] | IC50 [2, 7] | IC50 [3, 8] | IC50 [4] | IC50 [1] | IC50 ([2]; PI3 Kinase α) | IC50 ([3]; PI3 Kinase γ) | IC50 [5]
COCC(COC)n1ncc2c(N3CC4CCC(C3)O4)nc(-c3ccc(NC(=O)NCCO)cc3)nc21 [Example 322, 1-(2-hydroxyethyl)-3-(4-{1-[2-methoxy-1-(methoxymethyl)ethyl]-4-(8-oxa-3-azabicyclo[3.2.1]oct-3-yl)-1H-pyrazolo[3,4-d]pyrimidin-6-yl}phenyl)urea] | 6.45 nM | 1250 nM | > 10000 nM | 1000 nM |  |  |  | 2800 nM
CC(C)n1ncc2c(N3CC4CCC(C3)O4)nc(-c3ccc(NC(=O)OCC(O)CO)cc3)nc21 (stereo not drawn) [Example 146, 2,3-dihydroxypropyl {4-[1-isopropyl-4-(8-oxa-3-azabicyclo[3.2.1]oct-3-yl)-1H-pyrazolo[3,4-d]pyrimidin-6-yl]phenyl}carbamate] |  |  |  | 110 nM | 2.9 nM | 2150 nM | 7640 nM | 580 nM
CN1CCN(Cc2cc3nc(-c4ccc(NC(=O)Nc5cccnc5)cc4)nc(N4CC5CCC(C4)O5)c3s2)CC1 [Example 426, 1-(4-{6-[(4-methylpiperazin-1-yl)methyl]-4-(8-oxa-3-azabicyclo[3.2.1]oct-3-yl)thieno[3,2-d]pyrimidin-2-yl}phenyl)-3-pyridin-3-ylurea] | 4.7 nM | 148 nM | 2610 nM | 180 nM |  |  |  | 380 nM
CN1CCN(c2ccc(NC(=O)Nc3ccc(-c4nc(N5CC6CCC(C5)O6)c5cnn(CCF)c5n4)cc3)cc2)CC1 [Example 246, 1-{4-[1-(2-fluoroethyl)-4-(8-oxa-3-azabicyclo[3.2.1]oct-3-yl)-1H-pyrazolo[3,4-d]pyrimidin-6-yl]phenyl}-3-[4-(4-methylpiperazin-1-yl)phenyl]urea] |  |  |  | < 1 nM | 0.698 nM | 96 nM | 1560 nM | 7 nM
Cn1ncc2c(N3CC4CCC(C3)O4)nc(-c3cccc(O)c3)nc21 [Example 61, 3-[1-methyl-4-(8-oxa-3-azabicyclo[3.2.1]oct-3-yl)-1H-pyrazolo[3,4-d]pyrimidin-6-yl]phenol] |  |  |  | 1800 nM | 90 nM | 903 nM | 1840 nM | 7600 nM
O=C(Nc1ccc(-c2nc(N3C[C@@H]4C[C@H]3CO4)c3cnn(CC(F)(F)F)c3n2)cc1)Nc1cccnc1 [Example 293, 1-(4-{4-[(1S,4S)-2-oxa-5-azabicyclo[2.2.1]hept-5-yl]-1-(2,2,2-trifluoroethyl)-1H-pyrazolo[3,4-d]pyrimidin-6-yl}phenyl)-3-pyridin-3-ylurea] |  |  |  | 17 nM | 1.25 nM | 602 nM | > 10000 nM | 50 nM
CN1CCN(C2CCC(n3ncc4c(N5CC6CCC(C5)O6)nc(-c5ccc(NC(=O)NC6CC6)cc5)nc43)CC2)CC1 (stereo not drawn) [Example 372, 1-cyclopropyl-3-(4-{1-[4-(4-methylpiperazin-1-yl)cyclohexyl]-4-(8-oxa-3-azabicyclo[3.2.1]oct-3-yl)-1H-pyrazolo[3,4-d]pyrimidin-6-yl}phenyl)urea] | 0.395 nM | 2980 nM | 5340 nM | 110 nM |  |  |  | 420 nM
CNC(=O)Nc1ccc(-c2nc(N3CC4CCC(C3)O4)c3cnn(C4CCC(OC)CC4)c3n2)cc1 (stereo not drawn) [Example 383, 1-{4-[1-(4-methoxycyclohexyl)-4-(8-oxa-3-azabicyclo[3.2.1]oct-3-yl)-1H-pyrazolo[3,4-d]pyrimidin-6-yl]phenyl}-3-methylurea] | 0.53 nM | 793 nM | > 10000 nM | 7 nM |  |  |  | 30 nM
CCn1nc(N2CCCC2)c2c(N3CC4CCC(C3)O4)nc(-c3ccc(NC(=O)NC)cc3)nc21 [Example 347, 1-{4-[1-ethyl-4-(8-oxa-3-azabicyclo[3.2.1]oct-3-yl)-3-pyrrolidin-1-yl-1H-pyrazolo[3,4-d]pyrimidin-6-yl]phenyl}-3-methylurea] | 5.6 nM | 1100 nM | 7130 nM | 310 nM |  |  |  | 1300 nM

Further lines, with some results ahead:

IC50 [1, 6] | IC50 [2, 7] | IC50 [3, 8] | IC50 [4] | IC50 [1] | IC50 ([2]; PI3 Kinase α) | IC50 ([3]; PI3 Kinase γ) | SMILES | IC50 [5]
 |  |  | 27 nM | 0.47 nM | 2350 nM | > 10000 nM | CCNC(=O)Nc1ccc(-c2nc(N3CC4CCC(C3)O4)c3cnn(C4CCN(C(=O)OC(C)(C)C)CC4)c3n2)cc1 [Example 20, tert-butyl4-[6-{4-[(ethylcarbamoyl)amino]phenyl}-4-(8-oxa-3-azabicyclo[3.2.1]oct-3-yl)-1H-pyrazolo[3,4-d]pyrimidin-1-yl]piperidine-1-carboxylate] | 98 nM
 |  |  | 5 nM | 0.115 nM | 234 nM | 6170 nM | CNC(=O)Nc1ccc(-c2nc(N3CC4CCC(C3)O4)c3cnn(C(C)C)c3n2)cc1 [Example 139, 1-{4-[1-isopropyl-4-(8-oxa-3-azabicyclo[3.2.1]oct-3-yl)-1H-pyrazolo[3,4-d]pyrimidin-6-yl]phenyl}-3-methylurea] | 50 nM
0.25 nM | 182 nM | 1520 nM | < 1 nM |  |  |  | COC1CCC(n2ncc3c(N4CC5CCC(C4)O5)nc(-c4ccc(NC(=O)Nc5ccc(N6CCNCC6)cc5)cc4)nc32)CC1 (stereo not drawn) [Example 305, 1-{4-[1-(4-methoxycyclohexyl)-4-(8-oxa-3-azabicyclo[3.2.1]oct-3-yl)-1H-pyrazolo[3,4-d]pyrimidin-6-yl]phenyl}-3-(4-piperazin-1-ylphenyl)urea] | 1 nM
 |  |  | 52 nM | 0.4 nM | 1760 nM | > 10000 nM | CCn1ncc2c(N3CC4CCC(C3)O4)nc(-c3ccc(NC(=O)NC4CC4)cc3)nc21 [Example 43, 1-cyclopropyl-3-{4-[1-ethyl-4-(8-oxa-3-azabicyclo[3.2.1]oct-3-yl)-1H-pyrazolo[3,4-d]pyrimidin-6-yl]phenyl}urea] | 250 nM
 |  |  | 50 nM | 2.7 nM | 235 nM | 3120 nM | CN(C)CCn1ncc2c(N3CC4CCC(C3)O4)nc(-c3ccc(NC(=O)Nc4cccnc4)cc3)nc21 [Example 157, 1-(4-{1-[2-(dimethylamino)ethyl]-4-(8-oxa-3-azabicyclo[3.2.1]oct-3-yl)-1H-pyrazolo[3,4-d]pyrimidin-6-yl}phenyl)-3-pyridin-3-ylurea] | 220 nM
0.33 nM | 107 nM | 1360 nM | < 1 nM |  |  |  | CN1CCN(c2ccc(NC(=O)Nc3ccc(-c4nc(N5CC6CCC(C5)O6)c5cnn([C@H]6CC[C@@H](O)CC6)c5n4)cc3)cc2)CC1 (relative stereo) [Example 405, 1-{4-[1-(cis-4-hydroxycyclohexyl)-4-(8-oxa-3-azabicyclo[3.2.1]oct-3-yl)-1H-pyrazolo[3,4-d]pyrimidin-6-yl]phenyl}-3-[4-(4-methylpiperazin-1-yl)phenyl]urea] | 20 nM

Source: patent US8129371B2, “Thienopyrimidine and pyrazolopyrimidine compounds and their use as mTOR kinase and PI3 kinase inhibitors” (Wyeth LLC, priority 2007, dated 2012)
